Measured values: US10973810B2, “Methods for the treatment of neurological disorders” (Yumanity Therapeutics, Inc., priority 2017, dated 2021)

Tests used:
human SCD5 = molecular target: T1, human SCD5 (Homo sapiens, UniProt Q86SK9); test: Growth of humanized yeast surviving solely on human SCD5; type: cell-based; conditions: growth inhibition
T1 construct: host or cells: S. cerevisiae ole1Δ strain (W303 pdr1Δ pdr3Δ background), plasmid pRS316 with TDH3 promoter and CYC1 terminator
T1 sequence (Q86SK9 1-330): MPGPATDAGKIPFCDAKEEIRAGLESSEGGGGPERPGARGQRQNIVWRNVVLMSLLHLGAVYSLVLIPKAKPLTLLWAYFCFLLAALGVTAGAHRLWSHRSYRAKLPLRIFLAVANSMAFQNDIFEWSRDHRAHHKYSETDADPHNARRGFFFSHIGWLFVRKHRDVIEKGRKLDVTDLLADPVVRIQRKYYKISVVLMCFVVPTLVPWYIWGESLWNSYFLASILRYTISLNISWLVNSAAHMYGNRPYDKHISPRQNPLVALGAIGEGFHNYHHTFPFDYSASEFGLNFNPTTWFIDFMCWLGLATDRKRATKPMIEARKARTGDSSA
Description: To generate yeast strains expressing SCD1 or SCD5 as the sole desaturase, the human SCD1 and SCD5 genes were cloned from cDNAs (Harvard PlasmID database Clone ID HsCD00340237 for SCD1 and HsCD00342695 for SCD5) into yeast plasmid pRS316 (ATCC 77145) between the yeast TDH3 promoter and the CYC1 terminator. The coding sequence of yeast OLE1 was also cloned into this plasmid). These clones were then transformed into the ole1d strain and plated on CSM-Ura media (CSM lacking uracil) with 2% glucose (w/v) and independent colonies were isolated and amplified.
For experiments using a plasmid-borne copy of Ole1, SCD1, or SCD5 (FIGS. 3B, 6, and 7), media lacking uracil (SX-Ura, where X is glucose, raffinose, or galactose), was used for all steps of the compound profiling protocol to ensure its maintenance throughout the assay.
After yeast delivery, assay plates were incubated under humidified conditions at 30° C. for 24 to 40 h. ApoE4 rescue experiments were stopped at 24 h, aSyn experiments at 40 h, Ole1 at 24 h, and SCD1/SCD5 at 40 h. The growth of yeast was monitored by reading the OD600 of each well using a microplate reader (Perkin Elmer EnVision™). For model rescue experiments, raw data were processed by background subtracting and calculating a fold-change relative to DMSO control [(EXP-0.035)/(DMSO-0.035)—where 0.035 is the OD600 contributed by an empty well containing 30 μL of media alone]. For growth inhibition of wild-type cells, raw data were processed by background subtracting and converting values to a percent of the nontreated condition for that strain [(EXP-0.035)/(DMSO-0.035)×100%].

[1] = tested on: alpha-synuclein transfected U2OS cells; test: U2OS ATP assay of alpha-synuclein toxicity; type: cell-based, human; conditions: 72 h after transfection/treatment; titration; normalized to DMSO control
Procedure: U2OS cells were transfected with empty vector control (“pcDNA”) or alpha-synuclein (“α-synuclein/pcDNA”) in combination with a scrambled (SCR) siRNA control (50 nM), or human SCD5 siRNA (10, 25 or 50 nM). (FIG. 12A) Cellular heath was assessed 48 h after transfection by evaluating ATP levels. Cell toxicity in the alpha-synuclein plus SCR siRNA was set as the floor of the assay, and then all samples were normalized to pcDNA with […] (set to 100%) to calculate the normalized percent rescue. Bars depict mean values of triplicate determinations; error bars indicate standard deviation. A two-tailed t-test was used to compare control conditions with SCR or SCD5 siRNA (*p 0.05). Cells transfected with alpha-synuclein were analyzed together by ANOVA with Dunnett's post-test to correct for multiple comparisons (**p 0.01, ****p 0.0001). Significance is shown for the comparison of each alpha-synuclein plus SCD5 siRNA concentration compared against the alpha-synuclein plus SCR control. (FIG. 12B) Quantitative RT-PCR was utilized to confirm the levels of SCD5 mRNA. […]
Powders of reference SCD inhibitors (CAY10566, A939572 and MF-438) were resuspended and serial diluted in DMSO. […] ATP content was then measured using the CellTiter-Glo® kit (Promega) with luminescence signals measured on an EnVision multimode plate reader (Perkin Elmer).

Cc1nnc(-c2ccc(N3CCC(Oc4cc(F)ccc4Cl)CC3)nn2)o1 [CAY10566]
half-maximal inhibitory concentration (IC50), SCD5 humanized strain (human SCD5): low nanomolar | cellular ATP levels in alpha-synuclein transfected U2OS cells [1]: significantly reversed alpha-synuclein-dependent decreases in ATP levels
